Measurements reported in patent US10669272B2, “Substituted naphthyridinone compounds useful as T cell activators” (BRISTOL-MYERS SQUIBB COMPANY, priority 2018, dated 2020).
Read-outs that look alike come from different tables or passages of the source.

Assays:
Human venous whole blood = experiment: Human whole blood IFN-γ assay; assay type: cell-based; details: human whole blood, read-out: INFg Whole Blood Normalized Agonist EC50;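 further: blood from healthy donors exposed to compound for 1 h before stimulation with anti-CD3 and anti-CD28 at 1 µg/mL each, IFN-γ quantified in supernatant by AlphaLISA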
human DGKζ = target: T1, human DGKζ (Homo sapiens, UniProt Q13574); experiment: DGKζ LIPGLO assay (extruded liposome substrate), in vitro DGK inhibition; assay type: biochemical; details: read-out: DGKz LIPGLO IC50
T1 construct: TVMV protease cleavage site (C); Hexa-His (C); made in house; host or cells: Sf9 insect cells (baculovirus, Bac-to-Bac)
T1 sequence (Q13574 with tags, fused parts or gaps isoform Q13574-4): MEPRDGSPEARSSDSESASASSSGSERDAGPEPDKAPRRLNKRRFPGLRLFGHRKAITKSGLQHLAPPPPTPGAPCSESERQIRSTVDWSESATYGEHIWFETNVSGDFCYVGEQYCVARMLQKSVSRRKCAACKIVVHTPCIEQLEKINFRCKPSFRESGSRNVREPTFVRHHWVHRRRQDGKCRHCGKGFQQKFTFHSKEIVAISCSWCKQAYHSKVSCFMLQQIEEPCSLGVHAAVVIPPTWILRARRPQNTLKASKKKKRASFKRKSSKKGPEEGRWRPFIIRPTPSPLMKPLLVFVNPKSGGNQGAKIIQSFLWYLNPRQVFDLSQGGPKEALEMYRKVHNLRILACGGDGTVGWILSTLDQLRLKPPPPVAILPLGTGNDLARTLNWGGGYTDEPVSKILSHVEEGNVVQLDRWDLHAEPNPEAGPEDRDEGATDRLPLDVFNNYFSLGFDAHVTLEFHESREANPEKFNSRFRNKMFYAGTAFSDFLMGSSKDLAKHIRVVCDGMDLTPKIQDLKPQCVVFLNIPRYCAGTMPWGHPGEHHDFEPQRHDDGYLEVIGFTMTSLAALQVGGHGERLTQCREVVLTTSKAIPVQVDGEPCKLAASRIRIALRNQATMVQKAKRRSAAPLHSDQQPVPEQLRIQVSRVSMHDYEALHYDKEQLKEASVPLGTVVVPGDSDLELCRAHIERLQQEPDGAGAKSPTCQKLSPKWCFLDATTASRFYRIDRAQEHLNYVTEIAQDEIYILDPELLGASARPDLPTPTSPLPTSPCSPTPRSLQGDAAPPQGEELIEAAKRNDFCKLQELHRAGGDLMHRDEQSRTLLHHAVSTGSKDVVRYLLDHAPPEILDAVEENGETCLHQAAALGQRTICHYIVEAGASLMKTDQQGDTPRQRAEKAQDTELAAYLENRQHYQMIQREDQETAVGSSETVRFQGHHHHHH

human DGKα = target: T2, human DGKα (Homo sapiens, UniProt P23743); experiment: DGKα LIPGLO assay (extruded liposome substrate), in vitro DGK inhibition; assay type: biochemical; details: read-out: DGKa LIPGLO IC50
T2 construct: TVMV protease cleavage site (C); Hexa-His (C); made in house; host or cells: Sf9 insect cells (baculovirus, Bac-to-Bac)
T2 sequence (P23743 with tags, fused parts or gaps): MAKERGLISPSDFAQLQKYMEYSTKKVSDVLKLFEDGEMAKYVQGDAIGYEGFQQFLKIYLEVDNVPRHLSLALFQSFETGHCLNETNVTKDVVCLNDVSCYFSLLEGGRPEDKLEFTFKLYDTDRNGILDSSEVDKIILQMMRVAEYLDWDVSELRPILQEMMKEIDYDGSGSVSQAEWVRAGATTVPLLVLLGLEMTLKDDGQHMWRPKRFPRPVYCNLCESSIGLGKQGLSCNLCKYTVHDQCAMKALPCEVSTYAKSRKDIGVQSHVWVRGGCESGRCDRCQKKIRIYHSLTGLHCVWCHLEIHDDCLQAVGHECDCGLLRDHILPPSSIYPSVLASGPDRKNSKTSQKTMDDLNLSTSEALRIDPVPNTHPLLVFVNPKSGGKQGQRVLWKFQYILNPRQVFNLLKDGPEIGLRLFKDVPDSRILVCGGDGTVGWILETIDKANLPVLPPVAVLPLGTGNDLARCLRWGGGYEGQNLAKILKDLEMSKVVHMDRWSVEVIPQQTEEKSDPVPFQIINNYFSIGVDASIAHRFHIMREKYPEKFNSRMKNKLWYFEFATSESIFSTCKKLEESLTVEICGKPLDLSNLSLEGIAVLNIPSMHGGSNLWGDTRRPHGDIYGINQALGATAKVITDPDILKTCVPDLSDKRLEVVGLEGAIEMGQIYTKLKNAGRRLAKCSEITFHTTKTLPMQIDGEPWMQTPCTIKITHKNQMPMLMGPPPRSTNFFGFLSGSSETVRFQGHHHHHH

[1] = normalized to 3 μM reference compound with anti-CD3 plus anti-CD28 as 100% activation
[2] = anti-CD3 plus anti-CD28, 24 hours, 3 μM reference compound = 100% activation
[3] = Homo sapiens, 24 h, normalized to 3 μM reference compound with anti-CD3 plus anti-CD28 as 100% activation
[4] = Homo sapiens, 24 h, anti-CD3 plus anti-CD28, 24 hours, 3 μM reference compound = 100% activation

SMILES	IC50 (human DGKζ; liposome (LIPGLO) assay)	IC50 (human DGKα; liposome (LIPGLO) assay)	IC50 (human DGKζ; DGKζ liposome (LIPGLO) assay)	IC50 (human DGKα; DGKα liposome (LIPGLO) assay)	EC50 (Human venous whole blood; [1])	EC50 (Human venous whole blood; [2])	EC50 (Human venous whole blood; [3])	EC50 (Human venous whole blood; [4])
C[C@H]1CN(C(c2ccc(F)cc2)c2ccon2)[C@H](CO)CN1c1cc(=O)n(C)c2ccc(C#N)nc12 (single isomer, unassigned) [Example 1392]	3800 nM	1900 nM			14000 nM			
C[C@@H]1CN(c2c(C#N)c(=O)n(C)c3ccc(C#N)nc23)[C@@H](C)CN1C(c1ccc(F)cc1)c1ccon1 (single isomer, unassigned) [Example 851]			27000 nM	1300 nM		20000 nM		
CC[C@H]1CN(C(c2ccc(F)cc2)c2cc(C3CC3)on2)[C@H](CC)CN1c1cc(=O)n(C)c2ccc(C#N)nc12 (single isomer, unassigned) [Example 1074]	47 nM	44 nM					42 nM	
CC(c1csc(C(F)(F)F)n1)N1C[C@H](C)N(c2cc(=O)n(C)c3ccc(C#N)nc23)C[C@H]1C (single isomer, unassigned) [Example 1273]	360 nM	180 nM					1700 nM	
CC[C@H]1CN(C(c2ccc(F)cc2)c2cocn2)[C@H](CC)CN1c1cc(=O)n(C)c2ccc(C#N)nc12 (single isomer, unassigned) [Example 1068]	92 nM	43 nM			250 nM			
C[C@@H]1CN(c2cc(=O)n(C)c3ccc(C#N)nc23)[C@@H](C)CN1C(c1ccc(Cl)cc1)c1nc(C2CC2)no1 (single isomer, unassigned) [Example 1286]	100 nM	38 nM			270 nM			
C[C@H]1CN(Cc2ccc3c(c2)OC(F)(F)O3)[C@H](CO)CN1c1cc(=O)n(C)c2ccc(C#N)nc12 [Example 1390]	15000 nM	4000 nM					14000 nM	
CC[C@@H]1CN(c2cc(=O)n(C)c3ccc(C#N)nc23)[C@@H](C)CN1C(c1ccc(F)cc1)c1nc(C2CC2)cs1 (single isomer, unassigned) [Example 1338]	29 nM	69 nM					130 nM	
CC[C@@H]1CN(c2cc(=O)n(C)c3ccc(C#N)nc23)[C@@H](C)CN1C(C)c1ccc(C2CC2)cc1F (single isomer, unassigned) [Example 1340]	40 nM	630 nM			80 nM			
CC[C@@H]1CN(c2cc(=O)n(C)c3ccc(C#N)nc23)[C@@H](C)CN1Cc1ccc(OC(F)F)cc1 [Example 1330, 8-((2S,5R)-4-(4-(difluoromethoxy)benzyl)-5-ethyl-2-methylpiperazin-1-yl)-5-methyl-6-oxo-5,6-dihydro-1,5-naphthyridine-2-carbonitrile]	380 nM	44 nM					1500 nM	
CC[C@H]1CN(Cc2c(F)cc(F)cc2F)[C@H](C)CN1c1cc(=O)n(C)c2ccc(C#N)nc12 [Example 1148]	160 nM	38 nM					1200 nM	
COC[C@@H]1CN(c2cc(=O)n(C)c3ccc(C#N)nc23)[C@@H](C)CN1C(C)c1ccc(F)cc1 (single isomer, unassigned) [Example 1159]	130 nM	360 nM					300 nM	
C[C@@H]1CN(c2c(C#N)c(=O)n(C)c3ccc(C#N)nc23)[C@@H](C)CN1C(c1ccc(F)cc1)c1ccccn1 (single isomer, unassigned) [Example 843]			880 nM	750 nM		3800 nM		
CC(c1cccc2ncccc12)N1C[C@H](C)N(c2cc(=O)n(C)c3ccc(C#N)nc23)C[C@H]1C (single isomer, unassigned) [Example 638]	1800 nM	110000 nM					20000 nM	
C[C@@H]1CN(c2cc(=O)n(C)c3ccc(C#N)nc23)[C@@H](C)CN1C(c1ccc(F)cc1)c1csc(C2CC2)n1 (single isomer, unassigned) [Example 723]			11 nM	310 nM				450 nM
COC(=O)c1cccc(C(C)N2CCN(c3c(C#N)c(=O)n(C)c4ccc(C#N)nc34)C[C@H]2C)c1 (single isomer, unassigned) [Example 982]			1700 nM	8100 nM				20000 nM
COCC(c1ccc(F)cc1)N1C[C@H](C)N(c2cc(=O)n(C)c3ccc(C#N)nc23)C[C@H]1C (single isomer, unassigned) [Example 559]	2700 nM	65 nM					270 nM	
C[C@@H]1CN(c2c(F)c(=O)n(C)c3ccc(C#N)nc23)[C@@H](C)CN1C(c1ccc(F)cc1)c1c(F)cccc1F (single isomer, unassigned) [Example 336]	230 nM	740 nM			2000 nM			
COc1ccc(C(C)N2C[C@H](C)N(c3cc(=O)n(C)c4ccc(C#N)nc34)C[C@H]2C)nc1 (single isomer, unassigned) [Example 644]	500 nM	160 nM			3800 nM			
C[C@@H]1CN(c2cc(=O)n(C)c3ccc(C#N)nc23)[C@@H](C)CN1C(c1ccc(Cl)cc1)c1nc(C2CC2)no1 (single isomer, unassigned) [Example 1285]	17 nM	26 nM			92 nM			
CC[C@H]1CN(C(C)c2ccc(F)cc2)[C@H](CC)CN1c1cc(=O)n(C)c2ccc(C#N)nc12 (single isomer, unassigned) [Example 1049]	42 nM	15 nM			130 nM			
CC(c1ccc(OC(F)F)cc1)N1C[C@H](C)N(c2c(C#N)c(=O)n(C)c3ccc(C#N)nc23)C[C@H]1C (single isomer, unassigned) [Example 1375]	890 nM	190 nM					1800 nM	
CC[C@@H]1CN(c2cc(=O)n(C)c3ccc(C#N)nc23)[C@@H](CC)CN1Cc1ccc(OC(F)(F)F)cc1F [Example 1370]	140 nM	23 nM					240 nM	
CC[C@H]1CN(C(C)c2ccc(C(F)(F)F)cc2F)[C@H](CC)CN1c1cc(=O)n(C)c2ccc(C#N)nc12 (single isomer, unassigned) [Example 1364]	29 nM	150 nM			58 nM			
C[C@@H]1CN(c2cc(=O)n(C)c3ccc(C#N)nc23)[C@@H](C)CN1C(c1ccc(F)cc1)C1CCOCC1 (single isomer, unassigned) [Example 387]	3100 nM	1500 nM					3600 nM	

Now from value to compound, other results behind:

IC50 (human DGKζ; liposome (LIPGLO) assay)	IC50 (human DGKα; liposome (LIPGLO) assay)	IC50 (human DGKζ; DGKζ liposome (LIPGLO) assay)	IC50 (human DGKα; DGKα liposome (LIPGLO) assay)	SMILES	EC50 (Human venous whole blood; [1])	EC50 (Human venous whole blood; [2])	EC50 (Human venous whole blood; [3])	EC50 (Human venous whole blood; [4])
3900 nM	3300 nM			CC[C@@H]1CN(c2cc(=O)n(C)c3ccc(C#N)nc23)[C@@H](C)CN1C(C)c1ccc(OC)cc1 (single isomer, unassigned) [Example 483]	4300 nM			
65000 nM	26000 nM			CC(c1ccc(OC(F)(F)F)cc1)N1C[C@H](C)N(c2cc(=O)n(C)c3ccc(C#N)nc23)C[C@H]1CN1CCN(C)CC1 (stereo partly drawn) [Example 1417]			11000 nM	
14000 nM	3700 nM			Cc1cc(CN2C[C@H](C)N(c3cc(=O)n(C)c4ccc(C#N)nc34)C[C@H]2C)no1 [Example 1424]			20000 nM	
		1900 nM	5100 nM	C[C@@H]1CN(c2c(C#N)c(=O)n(C)c3ccc(C#N)nc23)[C@@H](C)CN1C(c1ccc(F)cc1)c1ccns1 (single isomer, unassigned) [Example 854]				10000 nM
390 nM	610 nM			CC[C@@H]1CN(c2c(F)c(=O)n(C)c3ccc(C#N)nc23)CCN1C(c1ccc(Cl)cc1)c1ccc(Cl)cc1 [Example 178, (R)-8-(4-(bis(4-chlorophenyl)methyl)-3-ethylpiperazin-1-yl)-7-fluoro-5-methyl-6-oxo-5,6-dihydro-1,5-naphthyridine-2-carbonitrile]			580 nM	
580 nM	8900 nM			CCn1cc(F)c2c(CN3C[C@H](C)N(c4cc(=O)n(C)c5ccc(C#N)nc45)C[C@H]3C)cccc21 [Example 596]			15000 nM	
980 nM	10000 nM			Cc1ccc(C(c2ccc(C)cc2)N2C[C@@H](C)N(c3cc(=O)n(C)c4ccc(C#N)nc34)C[C@@H]2CO)cc1 [Example 1173]			1400 nM	
		16000 nM	4200 nM	C[C@@H]1CN(c2c(C#N)c(=O)n(C)c3ccc(C#N)nc23)[C@@H](C)CN1C(c1ccc(F)cc1)c1ccc(F)cn1 (stereo partly drawn) [Example 828]		2700 nM		
12000 nM	1300 nM			C[C@@H]1CN(c2cc(=O)n(C)c3ccc(C#N)nc23)[C@@H](C)CN1C(c1ccc(F)cc1)c1ccon1 (single isomer, unassigned) [Example 706]	2900 nM			
		61000 nM	2600 nM	C[C@@H]1CN(c2cc(=O)n(C)c3ccc(C#N)nc23)[C@@H](C)CN1C(c1ccc(F)cc1)c1ncno1 (stereo partly drawn) [Example 755]				18000 nM
53 nM	250 nM			CC(c1ccc(C2CC2)cc1F)N1C[C@H](C)N(c2cc(=O)n(C)c3ccc(C#N)nc23)C[C@H]1C (single isomer, unassigned) [Example 1200]			230 nM	
590 nM	880 nM			CC[C@H]1CN(C(C)c2ccc(F)cc2F)[C@H](CC)CN1c1cc(=O)n(C)c2ccc(C#N)nc12 (single isomer, unassigned) [Example 1056]	580 nM			
640 nM	51000 nM			COc1ccc(C(C)N2C[C@H](C)N(c3cc(=O)n(C)c4ccc(C#N)nc34)C[C@H]2C)cc1C(F)(F)F (stereo partly drawn) [Example 1249]			17000 nM	
